How the values were obtained:
[1] = test system: RNP complex formed between HIV TAR RNA and Tat-derived peptide; details: 10-fold excess of tRNA; cited from earlier work
human RNase P = assay: Activity of partially purified human RNase P (ptRNA processing); type: biochemical; details: FIG. 5; for inhibition of human RNase P: 7.5 μM; for effect on human RNase P activity: concentrations 10-fold greater than the IC50 values for E. coli RNase P
Description: In order to determine if the AAC inhibitors of the present invention cross-react with human RNase P, the activity of a partially purified human enzyme was tested in the absence or presence of various concentrations of NeoR and […].

[2] = target: various bacterial RNase P; assay: RNase P activity assay, various bacterial RNase P; type: biochemical; details: concentration range
Description: (§1) Polynucleotide sequences of Neisseria gonnorhoeae, Porphyromonas gingivalis and Streptococcus pneumoniae (SEQ ID NOS: 1, 3 and 5, respectively) expressing amino acid (SEQ ID NOS: 2, 4 and 6, respectively) subunits of RNase P were PCR amplified using standard PCR methodology. The genes encoding the RNA subunit of RNase P were cloned into pUC19 under the transcriptional control of a T7 RNA polymerase promoter. T7 RNA polymerase-mediated run-off in vitro transcription was performed on individual clones to generate the respective RNase P RNAs, which were then purified using Quick Spin columns. cDNAs encoding the protein subunits of the various bacterial species were subcloned into either expression vectors: pCRT7TOPO or pBAD (Invitrogen, Carlsbad, Calif.). Proteins were over-expressed in E. coli as His6-tagged fusion proteins and purified to homogeneity using a combination of cation exchange and immobilized metal affinity chromatography.
(§2) RNase P activity was determined in the presence or absence of AAC inhibitors suspended in 50 mM Tris-Hcl (7.2), 5 % (w/v) polyethylene glycol 8000, 1 mM NH4Cl, 10 mM spermidine, 10 mM MgCl2. Reactions were carried under multiple-tumover conditions (for example, 100 nM of radio-labeled ptRNA^Tyrsu3+ and 0.5 nM E. coli RNase P holoenzyme). […]
(§3) Extent of substrate cleavage was quantified using a PhosphorImager (Molecular Dynamics) and ImageQuant softwares.

[3] = test system: RNase P derived from N. gonnorhoeae; assay: RNase P activity assay (ptRNA processing), reconstituted N. gonnorhoeae RNase P; type: biochemical, Neisseria gonnorhoeae; details: FIG. 3
Description: as §1, §2, §3

[4] = test system: RNase P derived from P. gingivalis; assay: RNase P activity assay (ptRNA processing), reconstituted P. gingivalis RNase P; type: biochemical, Porphyromonas gingivalis; details: FIG. 3
Chain of RNase P derived from P. gingivalis (as listed by the source): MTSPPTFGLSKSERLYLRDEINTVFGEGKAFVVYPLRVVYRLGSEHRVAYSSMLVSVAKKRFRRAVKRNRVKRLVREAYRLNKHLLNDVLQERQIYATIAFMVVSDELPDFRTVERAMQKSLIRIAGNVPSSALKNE
Description: as §1, §2, §3

[5] = test system: RNase P derived from S. pneumoniae; assay: RNase P activity assay (ptRNA processing), reconstituted S. pneumoniae RNase P; type: biochemical, Streptococcus pneumoniae; details: FIG. 3
Description: as §1, §2, §3

E. coli RNase P = assay: RNase P activity assay (ptRNA processing), in-vitro reconstituted E. coli RNase P; type: biochemical; details: for inhibition of RNase P processing activity: radiolabeled ptRNA Tyr su3+ substrate, FIG. 3; for effect of poly A RNA on ability to inhibit E. coli RNase P: as much as 1 μM poly A RNA added; for IC50: initial reaction velocities at increasing inhibitor concentrations, FIG. 4a-b, read-out: IC50, inhibition of E. coli RNase P activity
Description: RNase P from E. coli was prepared and purified according to Vioque, A. et al. (1988) J. Mol. Biol. 202:835-848 and Gopalan, V. (1997) J. Mol. Biol. 267:818-829.
ptRNA^Tyrsu3+ was prepared by in vitro transcription of FokI-digested pUC19TyrT [Vioque, A. et al. (1988) J. Mol. Biol. 202:835-848].
RNase P activity was determined in the presence or absence of AAC inhibitors suspended in 50 mM Tris-Hcl (7.2), 5 % (w/v) polyethylene glycol 8000, 1 mM NH4Cl, 10 mM spermidine, 10 mM MgCl2. Reactions were carried under multiple-tumover conditions (for example, 100 nM of radio-labeled ptRNA^Tyrsu3+ and 0.5 nM E. coli RNase P holoenzyme).
Following holoenzyme assembly, AAC inhibitors were added to the reaction mixture and incubated for 5 minutes prior to the addition of [^32P]-ptRNA^Tyrsu3+ substrate. Reactions were allowed to proceed for the indicated times and were terminated by adding a quenching dye [7 M Urea, 10 mM EDTA, 10% (v/v) phenol]. Reaction products were resolved by gel electrophoresis (8% polyacrylamide/7 M Urea) and auto-radiograms were obtained.
as §3

[6] = two single doses of 25 mg/kg body weight for the duration of two hours; cited from earlier work

Row | Compound | effect of tRNA on ability to disrupt the TAR RNA/Tat-derived peptide complex [1] | inhibition of human RNase P (human RNase P) | effect on human RNase P activity (human RNase P) | IC50 for inhibition of various bacterial RNase P [2] | inhibition of RNase P processing activity ([3]; 1500 nM R3G) | susceptibility of RNase P activity to the inhibitor ([4]; 1500 nM R3G) | inhibition of RNase P processing activity ([5]; 1500 nM R3G) | inhibition of RNase P processing activity (E. coli RNase P; 1500 nM R3G) | effect of poly A RNA on ability to inhibit E. coli RNase P (E. coli RNase P; FIG. 6) | IC50 (E. coli RNase P) [µM] | toxicity to mice [6] | inhibition of RNase P processing activity ([3]; 500 nM NeoR) | susceptibility of RNase P activity to the inhibitor ([4]; 500 nM NeoR) | inhibition of RNase P processing activity ([5]; 500 nM NeoR) | inhibition of RNase P processing activity (E. coli RNase P; 500 nM NeoR) | IC50 fold lower than that of the parental aminoglycoside (E. coli RNase P; versus literature value of parental aminoglycoside (Mikkelsen 1999)) [fold] | inhibition of RNase P specific activity (E. coli RNase P; 10-fold excess concentration over the ptRNA substrate, FIG. 6)
1 | triargininamido-gentamycin C [R3G] | no effect | nearly complete inhibition | largely unaffected | sub-micromolar | nearly complete inhibition | less susceptible | nearly complete inhibition | nearly complete inhibition | failed to alter | 0.3 | – | – | – | – | – | – | –
2 | hexa-argininamido-neomycin B [NeoR] | – | nearly complete inhibition | largely unaffected | sub-micromolar | – | – | – | – | failed to alter | 0.125 | not toxic | nearly complete inhibition | less susceptible | nearly complete inhibition | nearly complete inhibition | 100 | –
3 | N=C(N)NCCC[C@H](N)C(=O)O [L-Arginine, reference compound] | – | – | – | – | – | – | – | – | – | – | – | – | – | – | – | – | did not inhibit
